Laboratory results from patent publication US7452885B2, “Amino-5-(6-membered)heteroarylimidazolone compounds and the use thereof for β-secretase modulation” (Wyeth, priority 2005, dated 2008).
Like-named read-outs stand apart in the source and are kept apart here.

What was measured:
human BACE1 = human BACE1 (Homo sapiens, UniProt P56817); assay: Fluorescent kinetic assay, BACE-1 (Example 114); assay type: biochemical
Protocol: Evaluation of BACE-1 Binding Affinity of Test Compounds
Fluorescent Kinetic Assays
Dilution and mixing steps: total reaction volume: 100 μL
100 μM substrate dilution in 1×PBS was prepared, and
Fluorescence Readings: Readings at λex 320 nm and εem 420 nm are taken every 40 sec for 30 min at room temperature and the linear slope for substrate cleavage rate (vi) determined.

[1] = 10 nM human BACE1, 25 μM substrate WABC-6, 50 mM Na-Acetate pH 4.5, room temperature, read-out: BACE-1 (IC50 μM)

human BACE1, sequence (P56817 46-501): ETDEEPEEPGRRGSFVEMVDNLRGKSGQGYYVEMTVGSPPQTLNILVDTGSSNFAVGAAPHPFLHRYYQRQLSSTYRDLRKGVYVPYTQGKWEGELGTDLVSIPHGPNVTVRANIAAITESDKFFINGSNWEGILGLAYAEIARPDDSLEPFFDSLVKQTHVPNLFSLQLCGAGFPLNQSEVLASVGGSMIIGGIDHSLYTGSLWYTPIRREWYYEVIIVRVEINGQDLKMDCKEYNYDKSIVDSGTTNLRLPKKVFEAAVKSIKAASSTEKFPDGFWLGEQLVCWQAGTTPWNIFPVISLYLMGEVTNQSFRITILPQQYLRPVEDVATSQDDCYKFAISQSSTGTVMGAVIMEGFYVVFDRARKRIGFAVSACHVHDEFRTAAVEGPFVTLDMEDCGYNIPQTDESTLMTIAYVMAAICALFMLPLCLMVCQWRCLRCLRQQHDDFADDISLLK

Structure (SMILES) | IC50 (human BACE1) | IC50 (human BACE1; [1]) | melting point
Cc1cc(C2(c3cccc(-c4cncnc4)c3)N=C(N)N(C)C2=O)ccn1 (centres unmarked) [Example 61] | 0.01 to 0.1 µM |  | 
CCc1cc([C@]2(c3cccc(-c4ccc(F)nc4)c3)N=C(N)N(C)C2=O)cc(CC)n1 [Example 108B, (5S)-2-Amino-5-(2,6-diethylpyridin-4-yl)-5-[3-(6-fluoropyridin-3-yl)phenyl]-3-methyl-3,5-dihydro-4H-imidazol-4-one] |  | 0.01 to 0.1 µM | 
CN1C(=O)C(c2ccncc2)(c2cccc(-c3ccc(C#N)s3)c2)N=C1N (centres unmarked) [Example 50] | 0.11 to 1 µM |  | 220 to 222 °C
COc1ccc(C2(c3ccnc(-c4ccccc4)c3)N=C(N)N(C)C2=O)cc1C (centres unmarked) [Example 109, 2-Amino-5-(4-methoxy-3-methylphenyl)-3-methyl-5-(2-phenylpyridin-4-yl)-3,5-dihydro-4H-imidazol-4-one] |  | 0.11 to 1 µM | 
Cc1cc(C2(c3cccc(-c4cnccn4)c3)N=C(N)N(C)C2=O)cc(C)n1 (centres unmarked) [Example 101] |  | 0.11 to 1 µM | 
CN1C(=O)C(c2ccncc2)(c2cccc(O)c2)N=C1N (centres unmarked) [Example 51, 2-Amino-5-(3-hydroxyphenyl)-3-methyl-5-pyridin-4-yl-3,5-dihydro-4H-imidazol-4-one] |  | > 1 µM | 245 to 247 °C
CN1C(=O)C(c2cccc(-c3cccnc3)c2)(c2ccnc(Cl)c2)N=C1N (centres unmarked) [Example 89] |  | 0.01 to 0.1 µM | 223 to 225 °C
CCc1cc(C2(c3cccc(-c4cc(F)ccc4F)c3)N=C(N)N(C)C2=O)cc(C)n1 (centres unmarked) [Example 85] |  | 0.11 to 1 µM | 114 to 117 °C
CN1C(=O)C(c2cccnc2)(c2cccc(-c3ccccc3)c2)N=C1N (centres unmarked) [Example 27] |  | 0.11 to 1 µM | 212 to 214 °C
CCc1cc(C2(c3ccc(F)c(-c4cnccc4F)c3)N=C(N)N(C)C2=O)cc(CC)n1 (centres unmarked) |  |  | 92 to 100 °C
COc1ncc(C2(c3cccc(-c4cccnc4F)c3)N=C(N)N(C)C2=O)c(OC)n1 (centres unmarked) [Example 98] |  | 0.11 to 1 µM | 
CCc1cc(C2(c3cccc(-c4cncnc4)c3)N=C(N)N(C)C2=O)cc(C)n1 (centres unmarked) [Example 84] | 0.11 to 1 µM |  | 
CN1C(=O)C(c2ccccc2)(c2cccnc2)N=C1N (centres unmarked) [Example 28] |  | > 1 µM | 205 to 206 °C
Cc1cc(C2(c3cccc(-c4cc(F)ccc4F)c3)N=C(N)N(C)C2=O)ccn1 (centres unmarked) [Example 62] | 0.01 to 0.1 µM |  | 161 to 163 °C
Cc1cc(C2(c3cccc(-c4cncnc4)c3)N=C(N)N(C)C2=O)cc(C)n1 (centres unmarked) [Example 75] | 0.11 to 1 µM |  | 
CN1C(=O)C(c2ccncc2)(c2cccc(-c3cccc(F)c3)c2)N=C1N (centres unmarked) [Example 53] | 0.01 to 0.1 µM |  | 
CN1C(=O)C(c2ccncc2)(c2cccc(-c3cc(F)cnc3Cl)c2)N=C1N (centres unmarked) [Example 42] | 0.11 to 1 µM |  | 120 to 122 °C
CCc1cc(C2(c3cccc(-c4cnccn4)c3)N=C(N)N(C)C2=O)cc(C)n1 (centres unmarked) [Example 86] |  | 0.11 to 1 µM | 130 to 134 °C
Cc1cc(C2(c3cccc(-c4cc(F)ccc4F)c3)N=C(N)N(C)C2=O)cc(C)n1 (centres unmarked) [Example 76] | 0.11 to 1 µM |  | 184 to 190 °C
Cc1cc(C2(c3cccc(-c4cccnc4)c3)N=C(N)N(C)C2=O)ccn1 (centres unmarked) [Example 60] | 0.01 to 0.1 µM |  | 

Structure (SMILES) | IC50 (human BACE1) | IC50 (human BACE1; [1]) | melting point
CCc1cc(C2(c3cccc(-c4cncnc4)c3)N=C(N)N(C)C2=O)cc(CC)n1 (centres unmarked) [Example 91] | 0.01 to 0.1 µM |  | 
COc1ccc(F)cc1-c1cccc(C2(c3ccncc3)N=C(N)N(C)C2=O)c1 (centres unmarked) [Example 39] | 0.01 to 0.1 µM |  | 233 to 235 °C
CCc1cc(C2(c3cccc(OCC4CC4)c3)N=C(N)N(C)C2=O)cc(CC)n1 (centres unmarked) [Example 72] | 0.11 to 1 µM |  | 68 to 70 °C
CN1C(=O)C(c2ccncc2)(c2cccc(-c3cc[nH]n3)c2)N=C1N (centres unmarked) [Example 47] | > 1 µM |  | 148 to 150 °C
CCc1cc(C2(c3cccc(-c4cccnc4)c3)N=C(N)N(C)C2=O)ccn1 (centres unmarked) [Example 63] | 0.01 to 0.1 µM |  | 217 to 219 °C
CN1C(=O)C(c2ccncc2)(c2cccc(-c3cccnc3)c2)N=C1N (centres unmarked) [Example 44] | 0.01 to 0.1 µM |  | 
COc1ncc(C2(c3cccc(-c4cncnc4)c3)N=C(N)N(C)C2=O)c(OC)n1 (centres unmarked) [Example 97] |  | > 1 µM | 
CN1C(=O)C(c2cccc(-c3cccnc3F)c2)(c2ccncc2F)N=C1N (centres unmarked) [Example 58] | 0.01 to 0.1 µM |  | 237 to 238 °C
CN1C(=O)C(c2ccncc2)(c2cccc(-c3cc(F)cc(F)c3)c2)N=C1N (centres unmarked) [Example 31] | 0.01 to 0.1 µM |  | 
CCc1cc([C@]2(c3cccc(-c4cncnc4)c3)N=C(N)N(C)C2=O)cc(CC)n1 [Example 103B] | 0.01 to 0.1 µM |  | 
COc1cncc(-c2cccc(C3(c4ccncc4)N=C(N)N(C)C3=O)c2)c1 (centres unmarked) [Example 33] | 0.01 to 0.1 µM |  | 198 to 200 °C
CCc1cc(C2(c3cccc(-c4cccnc4)c3)N=C(N)N(C)C2=O)cc(CC)n1 (centres unmarked) [Example 90] |  | 0.01 to 0.1 µM | 152 to 157 °C
CC(=O)c1cccc(-c2cccc(C3(c4ccncc4)N=C(N)N(C)C3=O)c2)c1 (centres unmarked) [Example 38] | 0.11 to 1 µM |  | 218 to 220 °C
CCc1cc([C@@]2(c3cccc(-c4ccc(F)nc4)c3)N=C(N)N(C)C2=O)cc(CC)n1 [Example 108A, (5R)-2-Amino-5-(2,6-diethylpyridin-4-yl)-5-[3-(6-fluoropyridin-3-yl)phenyl]-3-methyl-3,5-dihydro-4H-imidazol-4-one] |  | > 1 µM | 
CCc1cc(C2(c3cccc(-c4cc(F)ccc4F)c3)N=C(N)N(C)C2=O)ccn1 (centres unmarked) [Example 65] |  |  | 188 to 192 °C
CCc1cc(C2(c3cccc(-c4cccnc4)c3)N=C(N)N(C)C2=O)cc(C)n1 (centres unmarked) [Example 83] |  | 0.11 to 1 µM | 135 to 139 °C
CN1C(=O)C(c2ccncc2)(c2cccc(-c3cccc(CO)c3)c2)N=C1N (centres unmarked) [Example 36] | 0.11 to 1 µM |  | 177 to 179 °C
CN1C(=O)C(c2ccncc2)(c2cccc(-c3cc(C#N)ccc3F)c2)N=C1N (centres unmarked) [Example 41] | 0.01 to 0.1 µM |  | 213 to 215 °C
CCc1cc(C2(c3cccc(-c4cnccn4)c3)N=C(N)N(C)C2=O)ccn1 (centres unmarked) [Example 67] | 0.01 to 0.1 µM |  | 138 to 140 °C
CN1C(=O)C(c2ccc(OC(F)F)cc2)(c2cccnc2)N=C1N (centres unmarked) [Example 111, 2-amino-5-[4-(difluoromethoxy)phenyl]-3-methyl-5-pyridin-3-yl-3,5-dihydro-4H-imidazol-4-one] |  | > 1 µM | 173 to 175 °C

Structure (SMILES) | IC50 (human BACE1) | IC50 (human BACE1; [1]) | melting point
CN1C(=O)C(c2ccncc2)(c2cccc(-c3ccn(C)n3)c2)N=C1N (centres unmarked) [Example 48] | 0.11 to 1 µM |  | 199 to 201 °C
COc1ncccc1-c1cccc(C2(c3ccncc3)N=C(N)N(C)C2=O)c1 (centres unmarked) [Example 49] | 0.11 to 1 µM |  | 243 to 245 °C
CN1C(=O)C(c2ccncc2)(c2cccc(-c3cccc(OC(F)(F)F)c3)c2)N=C1N (centres unmarked) [Example 54] | 0.11 to 1 µM |  | 208 to 210 °C
CN1C(=O)C(c2ccncc2)(c2cccc(-c3cccnc3F)c2)N=C1N (centres unmarked) [Example 43] | 0.01 to 0.1 µM |  | 
CN1C(=O)C(c2ccncc2)(c2ccc(F)c(-c3cccnc3F)c2)N=C1N (centres unmarked) [Example 59] | 0.01 to 0.1 µM |  | 218 to 220 °C
CN1C(=O)C(c2ccccc2)(c2ccncc2)N=C1N (centres unmarked) [Example 23, 2-Amino-3-methyl-5-phenyl-5-pyridin-4-yl-3,5-dihydro-4H-imidazol-4-one] | > 1 µM |  | 
CN1C(=O)C(c2ccncc2)(c2cccc(-c3cccc(F)c3F)c2)N=C1N (centres unmarked) [Example 40] | 0.01 to 0.1 µM |  | 
CN1C(=O)C(c2ccncc2)(c2cccc(-c3cccc(C#N)c3)c2)N=C1N (centres unmarked) [Example 55] | 0.01 to 0.1 µM |  | 
CCc1cc(C2(c3cccc(-c4ccc(F)nc4)c3)N=C(N)N(C)C2=O)cc(CC)n1 (centres unmarked) [Example 93] |  | 0.11 to 1 µM | 
CN1C(=O)[C@](c2ccncc2)(c2ccc(F)c(-c3cccnc3F)c2)N=C1N [Example 113A, (5R)-2-amino-5-[4-fluoro-3-(2-fluoropyridin-3-yl)phenyl]-3-methyl-5-pyridin-4-yl-3,5-dihydro-4H-imidazol-4-one] |  | > 1 µM | 
CN1C(=O)C(c2ccncc2)(c2ccc(OC(F)F)cc2)N=C1N (centres unmarked) [Example 112, 2-amino-5-[4-(difluoromethoxy)phenyl]-3-methyl-5-pyridin-4-yl-3,5-dihydro-4H-imidazol-4-one] |  | > 1 µM | 193 to 195 °C
CN1C(=O)C(c2ccncc2)(c2cccc(OCC3CC3)c2)N=C1N (centres unmarked) [Example 71] | 0.11 to 1 µM |  | 200 to 202 °C
CC(C)c1cc(C2(c3cccc(-c4cncnc4)c3)N=C(N)N(C)C2=O)ccn1 (centres unmarked) [Example 87] | 0.01 to 0.1 µM |  | 
CN1C(=O)[C@@](c2ccncc2)(c2ccc(F)c(-c3cccnc3F)c2)N=C1N [Example 113B, (5S)-2-amino-5-[4-fluoro-3-(2-fluoropyridin-3-yl)phenyl]-3-methyl-5-pyridin-4-yl-3,5-dihydro-4H-imidazol-4-one] |  | > 1 µM | 
CCc1cc([C@@]2(c3cccc(-c4cncnc4)c3)N=C(N)N(C)C2=O)cc(CC)n1 [Example 103A] | > 1 µM |  | 
COc1cccc(-c2cccc(C3(c4ccncc4)N=C(N)N(C)C3=O)c2)c1 (centres unmarked) [Example 34] | 0.01 to 0.1 µM |  | 
CCCOc1cccc(C2(c3ccncc3)N=C(N)N(C)C2=O)c1 (centres unmarked) [Example 52, 2-Amino-3-methyl-5-(3-propoxyphenyl)-5-pyridin-4-yl-3,5-dihydro-4H-imidazol-4-one] |  |  | 173 to 175 °C
CN1C(=O)C(c2ccncc2)(c2cccc(-c3ccoc3)c2)N=C1N (centres unmarked) [Example 45] |  |  | 113 to 115 °C
Cc1cc(C2(c3cccc(-c4cncnc4)c3)N=C(N)N(C)C2=O)cc[n+]1[O-] (centres unmarked) [Example 102] |  |  | 181 to 186 °C
CN1C(=O)C(c2ccncc2)(c2cccc(-c3ccsc3)c2)N=C1N (centres unmarked) [Example 46] |  |  | 217 to 219 °C
